Test results taken from US5430150A, “Retroviral protease inhibitors” (American Cyanamid Company, priority 1992, dated 1995).
Like-named read-outs stand apart in the source and are kept apart here.

What was measured:
HIV-1 protease = HIV-1 protease (Human immunodeficiency virus type 1 group M subtype B, UniProt P04585); test: biochemical; assay type: biochemical
Description: IC50 values for enzyme inhibition are determined using HIV-1 and Amersham's HIV proteinase [^125 I]-scintillation proximity assay (SPA).
Amersham's HIV proteinase [^125 I]-SPA system is a commercial assay incorporating the scintillation proximity assay (SPA) principle available from Amersham International PLC, Bucks, England.
The SPA microspheres provided by Amersham have the substrate linked directly to the surface through a streptavidin-biotin link. The substrate is a 12 residue peptide designed specifically for this application utilizing current knowledge of known cleavage sites for the enzyme and analogue substrate studies. The sequence of the substrate is: [drawing 22]
The peptide is monoiodinated on the tyrosine residue and biotinylated through the epsilon-NH2 group on the lysine. It is linked to the SPA bead via a streptavidin-link. The beads are suspended in a buffer consisting of 5 mM DTT, 1 mM EDTA, 10% w/v glycerol, 0.05% W/v sodium azide, 0.01% v/v Triton X-100 in 25 mM sodium citrate buffer pH 5.5.
The enzyme cleaves at the Phe-Phe bond releasing the ^125 I fragment from the bead. This event causes the removal of detectable signal from the microsphere. […] The rate of reduction in signal is proportional to the activity of the enzyme. The obtained data is used to calculate the IC50 values found in Table 1.

[1] = system: HIV-1 strain IIIB in T lymphoid MT-2 cell lines; test: inhibition of growth of HIV-1 strain IIIB in T lymphoid MT-2 cell lines (metabolic MTT dye); assay type: cell-based; details: Human immunodeficiency virus 1, IIIB, MT2, 120 h, 5 days; for inhibition at 0.01 µg/mL: 0.010 μg/ml, read-out: % Inhibition at concentration 0.010 μg/ml; for inhibition at 0.039 µg/mL: 0.039 μg/ml, read-out: % Inhibition at concentration 0.039 μg/ml; for inhibition at 0.156 µg/mL: 0.156 μg/ml, read-out: % Inhibition at concentration 0.156 μg/ml; for inhibition at 0.625 µg/mL: 0.625 μg/ml, read-out: % Inhibition at concentration 0.625 μg/ml; for inhibition at 2.5 µg/mL: 2.5 μg/ml, read-out: % Inhibition at concentration 2.5 μg/ml
Description: In Table 2, data is shown for the ability of these compounds to inhibit growth of HIV-1 strain IIIB in T lymphoid MT-2 cell lines. The cell line is challenged by free virons selected to result in 90-95% cell death (CPE) by day 5. The protease inhibitor compound is then added in the stated concentration. After 5 days, the surviving cells are measured using metabolic MTT dye.

[2] = Activity of Compounds as Enzyme Inhibitor

SMILES	IC50 (HIV-1 protease; [2]) [nM]	inhibition at 0.01 µg/mL [1] [%]	inhibition at 0.039 µg/mL [1] [%]	inhibition at 0.156 µg/mL [1] [%]	inhibition at 0.625 µg/mL [1] [%]	inhibition at 2.5 µg/mL [1] [%]	IC50 (HIV-1 protease) [nM]
CC[C@H](C)[C@H](NC(=O)[C@H](Cc1ccccc1)CC(O)(CO)CN1C[C@H]2CCCC[C@H]2C[C@H]1C(=O)NC(C)(C)C)C(=O)OC (relative stereo) [Example 30, 3S-[2(2S*),3alpha,4abeta,8abeta]]-N-[5-[3-[[(1,1-Dimethylethyl)amino]carbonyl]octahydro-2(1H)-isoquinolinyl]4-hydroxy-4-(hydroxymethyl)-1-oxo-2-(phenylmethyl)pentyl]-L-isoleucine methyl ester]	415	–	–	–	–	–	–
CC[C@H](C)[C@H](NC(=O)[C@H](Cc1ccccc1)CC(O)CN1C[C@H]2CCCC[C@H]2C[C@H]1C(=O)NC(C)(C)C)C(=O)NCc1nc2ccccc2[nH]1 (single isomer, unassigned) [Example 24A, [3S-[2[alphaS*(1R*,2R*),gammaR*(or S*),3alpha,4abeta,8abeta]]-N-[1-[[(1H-Benzimidazol-2-ylmethyl)amino]carbonyl]-2-methylbutyl]-3-[(1,1-dimethylethyl)amino]carbonyl]decahydro-gamma-hydroxy-alpha-(pentylmethyl)-2-isoquinolinepentanamide]	72.8	10.7	63.3	100	103	96	–
CC[C@H](C)[C@H](NC(=O)[C@H](Cc1ccccc1)CC(O)(CO)CN1C[C@H]2CCCC[C@H]2C[C@H]1C(=O)NC(C)(C)C)C(=O)NCc1nc2ccccc2[nH]1 (stereo partly drawn) [Example 21, [3S-[2[alphaS*(1R*,2R*),gammaR*(and S*),3alpha,4abeta,8abeta]]-N[1-[[(1H-Benzimidazol-2-ylmethyl)amino]carbonyl]-2-methylbutyl]-3-[[(1,1-dimethylethyl)amino]carbonyl]decahydro-gamma-hydroxy-gamma-(hydroxymethyl)alpha-(phenylmethyl)-2-isoquinolinepentanamide]	69.7	0	8.1	33	103	102	–
CC[C@H](C)[C@H](NC(=O)[C@H](Cc1ccccc1)CC(O)CN1C[C@H]2CCCC[C@H]2C[C@H]1C(=O)NC(C)(C)C)C(=O)NCc1nc2ccccc2[nH]1 (stereo partly drawn) [Example 23, [3S-[2[alphaS*(1R*,2R*),gammaR* (and S*)],3alpha,4abeta,8abeta]]-N-[1-[[(1H-Benzimidazol-2-ylmethyl)amino]carbonyl]-2-methylbutyl]-3-[[(1,1-dimethylethyl)amino]carbonyl]decahydro-gamma-hydroxy-alpha-(phenylmethyl)-2-isoquinolinepentanamide]	72.8	13	78.7	93.6	95.8	98.5	–
CC[C@H](C)[C@H](NC(=O)[C@H](Cc1ccccc1)CC(O)(CO)CN1C[C@H]2CCCC[C@H]2C[C@H]1C(=O)NC(C)(C)C)C(=O)NCc1ccccn1 (stereo partly drawn) [Example 26, [3S-[2[gammaR*(and S*),gamma[alphaS*[1R*,1(R*)]]],3alpha,4abeta,8abeta]]-3-[[(1,1-Dimethylethyl)amino]carbonyl]octahydro-gamma-hydroxy-gamma-(hydroxymethyl)-N-[[2-methyl-1-[[(2-pyridinylmethyl)amino]carbonyl]butyl]-alpha-(phenylmethyl)-2(1H)-isoquinolinepentanamide]	738	–	–	–	–	–	–
CC[C@H](C)[C@H](NC(=O)[C@H](Cc1ccccc1)CC(O)CN1C[C@H]2CCCC[C@H]2C[C@H]1C(=O)NC(C)(C)C)C(=O)NCc1ccccn1 (stereo partly drawn) [Example 28, [3S-[2[gammaR*(and S*),gamma[alphaS*[1R,1(R*)]]]],3alpha,4abeta,8abeta]]-3-[[(1,1-Dimethylethyl)amino]carbonyl]octahydro-gamma-hydroxy-N-[2-methyl-1-[[(2-pyridinylmethyl)amino]carbonyl]butyl]-alpha-(phenylmethyl)-2(1H)-isoqinolinepentanamide]	154	–	–	–	–	–	–
CC[C@H](C)[C@H](NC(=O)[C@H](Cc1ccccc1)CC(O)CN1C[C@H]2CCCC[C@H]2C[C@H]1C(=O)NC(C)(C)C)C(=O)OC (stereo partly drawn) [Example 32, [3S-[2[2S*,4R*(and S*)],3alpha,4abeta,8abeta]-N-[5-[3-[[(1,1-Dimethylethyl)amino]carbonyl]octahydro-2(1H)-isoquinolinyl]-4-hydroxy-1-oxo-2-(phenylmethyl)pentyl]-L-isoleucinemethyl ester]	874	–	–	–	–	–	–
CC(C)(C)NC(=O)[C@@H]1C[C@@H]2CCCC[C@@H]2CN1CC(O)(CO)C[C@@H](Cc1ccccc1)C(=O)N[C@H]1CCCC[C@@H]1NC(=O)c1ccc2ccccc2n1 (stereo partly shown) [Example 35]	68.9	0	0	1.97	0	0	–
CC(C)(C)NC(=O)[C@@H]1C[C@@H]2CCCC[C@@H]2CN1CC(O)C[C@@H](Cc1ccccc1)C(=O)N[C@H]1CCCC[C@@H]1NC(=O)c1ccc2ccccc2n1 (stereo partly drawn) [Example 37, [3S-[2[2S*(2R*,1R*)],3alpha,4abeta,8abeta]]-N-2-[[5-[3-[[(1,1-dimethylethyl)amino]carbonyl]octahydro-2(1H )-isoquinolinyl]-4-hydroxy-1-oxo-2-(phenylmethyl)pentyl]amino]cyclohexyl]-2-quinolinecarboxamide]	–	0.95	0	0	4.37	49.1	71.8
CC(C)(C)NC(=O)[C@@H]1C[C@@H]2CCCC[C@@H]2CN1CC(O)(CO)C[C@@H](Cc1ccccc1)C(=O)N[C@H]1CCCC[C@@H]1NC(=O)c1cc2ccccc2cn1 (stereo partly shown) [Example 40]	55.1	0	0	1.88	0.91	13.8	–
CC(C)(C)NC(=O)[C@@H]1C[C@@H]2CCCC[C@@H]2CN1CC(O)C[C@@H](Cc1ccccc1)C(=O)N[C@H]1CCCC[C@@H]1NC(=O)c1cc2ccccc2cn1 (stereo partly drawn) [Example 42, [3S-[2[alphaS*[1R*,1(2R*)]],3alpha,4abeta,8abeta]]-3-[[(1,1-Dimethylethyl)amino]carbonyl)octahydro-gamma-hydroxy-N-[2-[(3-isoquinolinylcarbonyl)amino]cyclohexyl]-alpha-(phenylmethyl)-2-(1H)-isoquinolinepentanamide]	79	4.33	0	4.21	12.9	86.8	–
CC[C@H](C)[C@H](NC(=O)[C@H](Cc1ccccc1)CC(O)CN1C[C@H]2CCCC[C@H]2C[C@H]1C(=O)NC(C)(C)C)C(=O)N[C@@H](C)c1nc2ccccc2[nH]1 (stereo partly drawn) [Example 51, [3S-[2alphaS*[1R*,1(R*),2R*]],3alpha,4abeta,8abeta]]-N-[1-[[[1H-benzimidazol-2-yl)ethyl]amino]carbonyl]-2-methylbutyl]-3-[[(1,1-dimethylethyl)amino]carbonyl]octahydro-gamma-hydroxy-alpha-phenylmethyl)-2(1H)-isoquinolinepentanamide]	–	1.67	2.24	10.4	55.1	72.9	128
